#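 Cultured in 96-well plates, cells were exposed to test compound for 48 hours across five concentrations. TGI is the concentration that stops growth completely.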
# Test system: SN12C renal
# Test: DTP human tumour cell line panel, 48 h
row,Structure (SMILES),TGI [µM]
1,COC(=O)CC[N+]1=CCC(c2ccccc2)(c2ccccc2)O1,> 100
2,Nc1c2c(nc3ccccc13)-c1ccccc1CC2,16.9
3,CO/C(=N\N=C\c1ccc(C(F)(F)F)cc1)c1ccncc1,> 10

# Test system: OVCAR-5 ovarian
# Test: DTP human tumour cell line panel, 48 h
row,Structure (SMILES),TGI [µM]
1,O=C(CCNC12CC3CC(CC(C3)C1)C2)c1ccccc1,71.7
2,COC(=O)CC[N+]1=CCC(c2ccccc2)(c2ccccc2)O1,> 100
3,CO/C(=N\N=C\c1ccc(C(F)(F)F)cc1)c1ccncc1,> 10

# Test system: ACHN renal
# Test: DTP human tumour cell line panel, 48 h
row,Structure (SMILES),TGI [µM]
1,O=C(CCNC12CC3CC(CC(C3)C1)C2)c1ccccc1,88.7
2,COC(=O)CC[N+]1=CCC(c2ccccc2)(c2ccccc2)O1,> 100
3,Nc1c2c(nc3ccccc13)-c1ccccc1CC2,14.1
4,CO/C(=N\N=C\c1ccc(C(F)(F)F)cc1)c1ccncc1,> 10

# Test system: OVCAR-3 ovarian
# Test: DTP human tumour cell line panel, 48 h
row,Structure (SMILES),TGI [µM]
1,COC(=O)CC[N+]1=CCC(c2ccccc2)(c2ccccc2)O1,> 100
2,CO/C(=N\N=C\c1ccc(C(F)(F)F)cc1)c1ccncc1,> 10

# Test system: SK-OV-3 ovarian
# Test: DTP human tumour cell line panel, 48 h
row,Structure (SMILES),TGI [µM]
1,COC(=O)CC[N+]1=CCC(c2ccccc2)(c2ccccc2)O1,> 100

# Test system: CAKI-1 renal
# Test: DTP human tumour cell line panel, 48 h
row,Structure (SMILES),TGI [µM]
1,COC(=O)CC[N+]1=CCC(c2ccccc2)(c2ccccc2)O1,> 100
2,CO/C(=N\N=C\c1ccc(C(F)(F)F)cc1)c1ccncc1,> 10

# Test system: NCI-H460 lung
# Test: DTP human tumour cell line panel, 48 h
row,Structure (SMILES),TGI [µM]
1,O=C(CCNC12CC3CC(CC(C3)C1)C2)c1ccccc1,69.6
2,COC(=O)CC[N+]1=CCC(c2ccccc2)(c2ccccc2)O1,> 100
3,Nc1c2c(nc3ccccc13)-c1ccccc1CC2,6.22
4,CO/C(=N\N=C\c1ccc(C(F)(F)F)cc1)c1ccncc1,> 10

# Test system: OVCAR-8 ovarian
# Test: DTP human tumour cell line panel, 48 h
row,Structure (SMILES),TGI [µM]
1,O=C(CCNC12CC3CC(CC(C3)C1)C2)c1ccccc1,45
2,COC(=O)CC[N+]1=CCC(c2ccccc2)(c2ccccc2)O1,> 100
3,Nc1c2c(nc3ccccc13)-c1ccccc1CC2,18
4,CO/C(=N\N=C\c1ccc(C(F)(F)F)cc1)c1ccncc1,> 10

# Test system: SNB-75 CNS
# Test: DTP human tumour cell line panel, 48 h
row,Structure (SMILES),TGI [µM]
1,O=C(CCNC12CC3CC(CC(C3)C1)C2)c1ccccc1,65.3

# Test system: MALME-3M melanoma
# Test: DTP human tumour cell line panel, 48 h
row,Structure (SMILES),TGI [µM]
1,O=C(CCNC12CC3CC(CC(C3)C1)C2)c1ccccc1,32.1
2,Nc1c2c(nc3ccccc13)-c1ccccc1CC2,20.8
3,CO/C(=N\N=C\c1ccc(C(F)(F)F)cc1)c1ccncc1,> 10

# Test system: HOP-92 NSCLC
# Test: DTP human tumour cell line panel, 48 h
row,Structure (SMILES),TGI [µM]
1,O=C(CCNC12CC3CC(CC(C3)C1)C2)c1ccccc1,64.2
2,COC(=O)CC[N+]1=CCC(c2ccccc2)(c2ccccc2)O1,> 100
3,Nc1c2c(nc3ccccc13)-c1ccccc1CC2,21.9
4,CO/C(=N\N=C\c1ccc(C(F)(F)F)cc1)c1ccncc1,> 10

# Test system: KM12 colon
# Test: DTP human tumour cell line panel, 48 h
row,Structure (SMILES),TGI [µM]
1,O=C(CCNC12CC3CC(CC(C3)C1)C2)c1ccccc1,91.1
2,COC(=O)CC[N+]1=CCC(c2ccccc2)(c2ccccc2)O1,> 100
3,CO/C(=N\N=C\c1ccc(C(F)(F)F)cc1)c1ccncc1,> 10

# Test system: HCC-2998 colon
# Test: DTP human tumour cell line panel, 48 h
row,Structure (SMILES),TGI [µM]
1,O=C(CCNC12CC3CC(CC(C3)C1)C2)c1ccccc1,26.5
2,COC(=O)CC[N+]1=CCC(c2ccccc2)(c2ccccc2)O1,> 100
3,Nc1c2c(nc3ccccc13)-c1ccccc1CC2,2.81
4,CO/C(=N\N=C\c1ccc(C(F)(F)F)cc1)c1ccncc1,> 10

# Test system: HT29 colon
# Test: DTP human tumour cell line panel, 48 h
row,Structure (SMILES),TGI [µM]
1,O=C(CCNC12CC3CC(CC(C3)C1)C2)c1ccccc1,23.6
2,COC(=O)CC[N+]1=CCC(c2ccccc2)(c2ccccc2)O1,> 100
3,CO/C(=N\N=C\c1ccc(C(F)(F)F)cc1)c1ccncc1,> 10

# Test system: BT-549 breast
# Test: DTP human tumour cell line panel, 48 h
row,Structure (SMILES),TGI [µM]
1,O=C(CCNC12CC3CC(CC(C3)C1)C2)c1ccccc1,85.3
2,COC(=O)CC[N+]1=CCC(c2ccccc2)(c2ccccc2)O1,> 100
3,Nc1c2c(nc3ccccc13)-c1ccccc1CC2,27
4,CO/C(=N\N=C\c1ccc(C(F)(F)F)cc1)c1ccncc1,> 10

# Test system: NCI-H522 lung
# Test: DTP human tumour cell line panel, 48 h
row,Structure (SMILES),TGI [µM]
1,O=C(CCNC12CC3CC(CC(C3)C1)C2)c1ccccc1,32
2,COC(=O)CC[N+]1=CCC(c2ccccc2)(c2ccccc2)O1,> 100
3,Nc1c2c(nc3ccccc13)-c1ccccc1CC2,24.5
4,CO/C(=N\N=C\c1ccc(C(F)(F)F)cc1)c1ccncc1,> 10

# Test system: U251 CNS
# Test: DTP human tumour cell line panel, 48 h
row,Structure (SMILES),TGI [µM]
1,O=C(CCNC12CC3CC(CC(C3)C1)C2)c1ccccc1,31.9
2,COC(=O)CC[N+]1=CCC(c2ccccc2)(c2ccccc2)O1,> 100
3,Nc1c2c(nc3ccccc13)-c1ccccc1CC2,15.8
4,CO/C(=N\N=C\c1ccc(C(F)(F)F)cc1)c1ccncc1,> 10

# Test system: HCT-116 colon
# Test: DTP human tumour cell line panel, 48 h
row,Structure (SMILES),TGI [µM]
1,O=C(CCNC12CC3CC(CC(C3)C1)C2)c1ccccc1,29.4
2,COC(=O)CC[N+]1=CCC(c2ccccc2)(c2ccccc2)O1,> 100
3,Nc1c2c(nc3ccccc13)-c1ccccc1CC2,13.5
4,CO/C(=N\N=C\c1ccc(C(F)(F)F)cc1)c1ccncc1,> 10

# Test system: RPMI-8226 leukemia
# Test: DTP human tumour cell line panel, 48 h
row,Structure (SMILES),TGI [µM]
1,O=C(CCNC12CC3CC(CC(C3)C1)C2)c1ccccc1,26.4
2,Nc1c2c(nc3ccccc13)-c1ccccc1CC2,21.7
3,CO/C(=N\N=C\c1ccc(C(F)(F)F)cc1)c1ccncc1,> 10

# Test system: MDA-MB-435
# Test: DTP human tumour cell line panel, 48 h
row,Structure (SMILES),TGI [µM]
1,O=C(CCNC12CC3CC(CC(C3)C1)C2)c1ccccc1,65.9
2,COC(=O)CC[N+]1=CCC(c2ccccc2)(c2ccccc2)O1,> 100
3,CO/C(=N\N=C\c1ccc(C(F)(F)F)cc1)c1ccncc1,> 10

# Test system: HS 578T breast
# Test: DTP human tumour cell line panel, 48 h
row,Structure (SMILES),TGI [µM]
1,COC(=O)CC[N+]1=CCC(c2ccccc2)(c2ccccc2)O1,> 100
2,Nc1c2c(nc3ccccc13)-c1ccccc1CC2,40.5

# Test system: IGROV1 ovarian
# Test: DTP human tumour cell line panel, 48 h
row,Structure (SMILES),TGI [µM]
1,O=C(CCNC12CC3CC(CC(C3)C1)C2)c1ccccc1,55.4
2,COC(=O)CC[N+]1=CCC(c2ccccc2)(c2ccccc2)O1,> 100
3,Nc1c2c(nc3ccccc13)-c1ccccc1CC2,19.8

# Test system: NCI/ADR-RES ovarian
# Test: DTP human tumour cell line panel, 48 h
row,Structure (SMILES),TGI [µM]
1,O=C(CCNC12CC3CC(CC(C3)C1)C2)c1ccccc1,59.8
2,Nc1c2c(nc3ccccc13)-c1ccccc1CC2,27.8
3,CO/C(=N\N=C\c1ccc(C(F)(F)F)cc1)c1ccncc1,> 10

# Test system: A498 renal
# Test: DTP human tumour cell line panel, 48 h
row,Structure (SMILES),TGI [µM]
1,O=C(CCNC12CC3CC(CC(C3)C1)C2)c1ccccc1,62.9
2,COC(=O)CC[N+]1=CCC(c2ccccc2)(c2ccccc2)O1,> 100
3,Nc1c2c(nc3ccccc13)-c1ccccc1CC2,16.2

# Test system: SK-MEL-28 melanoma
# Test: DTP human tumour cell line panel, 48 h
row,Structure (SMILES),TGI [µM]
1,O=C(CCNC12CC3CC(CC(C3)C1)C2)c1ccccc1,75.4
2,COC(=O)CC[N+]1=CCC(c2ccccc2)(c2ccccc2)O1,> 100
3,Nc1c2c(nc3ccccc13)-c1ccccc1CC2,22.8

# Test system: OVCAR-4 ovarian
# Test: DTP human tumour cell line panel, 48 h
row,Structure (SMILES),TGI [µM]
1,O=C(CCNC12CC3CC(CC(C3)C1)C2)c1ccccc1,> 100
2,COC(=O)CC[N+]1=CCC(c2ccccc2)(c2ccccc2)O1,> 100
3,CO/C(=N\N=C\c1ccc(C(F)(F)F)cc1)c1ccncc1,> 10

# Test system: SK-MEL-5 melanoma
# Test: DTP human tumour cell line panel, 48 h
row,Structure (SMILES),TGI [µM]
1,O=C(CCNC12CC3CC(CC(C3)C1)C2)c1ccccc1,32.7
2,COC(=O)CC[N+]1=CCC(c2ccccc2)(c2ccccc2)O1,> 100
3,Nc1c2c(nc3ccccc13)-c1ccccc1CC2,15.3

# Test system: MCF7 breast
# Test: DTP human tumour cell line panel, 48 h
row,Structure (SMILES),TGI [µM]
1,O=C(CCNC12CC3CC(CC(C3)C1)C2)c1ccccc1,34.9
2,COC(=O)CC[N+]1=CCC(c2ccccc2)(c2ccccc2)O1,> 100
3,Nc1c2c(nc3ccccc13)-c1ccccc1CC2,13.8
4,CO/C(=N\N=C\c1ccc(C(F)(F)F)cc1)c1ccncc1,> 10

# Test system: MDA-MB-231 breast
# Test: DTP human tumour cell line panel, 48 h
row,Structure (SMILES),TGI [µM]
1,O=C(CCNC12CC3CC(CC(C3)C1)C2)c1ccccc1,69.8
2,COC(=O)CC[N+]1=CCC(c2ccccc2)(c2ccccc2)O1,> 100
3,Nc1c2c(nc3ccccc13)-c1ccccc1CC2,17.8
4,CO/C(=N\N=C\c1ccc(C(F)(F)F)cc1)c1ccncc1,> 10

# Test system: UO-31 renal
# Test: DTP human tumour cell line panel, 48 h
row,Structure (SMILES),TGI [µM]
1,O=C(CCNC12CC3CC(CC(C3)C1)C2)c1ccccc1,77.6
2,COC(=O)CC[N+]1=CCC(c2ccccc2)(c2ccccc2)O1,> 100
3,CO/C(=N\N=C\c1ccc(C(F)(F)F)cc1)c1ccncc1,> 10

# Test system: SR leukemia
# Test: DTP human tumour cell line panel, 48 h
row,Structure (SMILES),TGI [µM]
1,O=C(CCNC12CC3CC(CC(C3)C1)C2)c1ccccc1,37.1
2,Nc1c2c(nc3ccccc13)-c1ccccc1CC2,9.31
3,CO/C(=N\N=C\c1ccc(C(F)(F)F)cc1)c1ccncc1,> 10

# Reference: PubChem BioAssay (NCI)
